Assays:
human Nav1.5 = biological target: T1, human Nav1.5 (Homo sapiens, UniProt Q14524); assay: Amplification of Nav1.5-derived voltage-dependent sodium current (Nav1.5 current), cell line stably expressing human Nav1.5, automated patch clamp; format: cell-based
T1 construct: expressed in transfected cells; host or cells: CHO-K1 (T-REx System, ThermoFisher Scientific)
Procedure: Test 2: Evaluation of the Amplification in Nav1.5-Derived Voltage-Dependent Sodium Current (Nav1.5 Current) by Using a Cell Line Stably Expressing Human Nav1.5
A CHO-K1 cell line (Chinese hamster ovary) stably expressing human Nav1.5 (Gene Bank Accession No: P000326.2) was obtained by using purchased T-Rex System (ThermoFisher Scientific, USA), and used for the present test. The effect of test compounds on the amplification of Nav1.5 current was evaluated by using a cell line stably expressing human Nav1.5 and HTS automated patch clamp system, similarly in the method using Nav1.1. In other words, test compounds were added in an extracellular fluid which contained 1% DMSO and 500 nmol/L Tetrodotoxin (TTX), and evaluated as a change of the peak value of Nav1.5 current and the area under the curve (AUC). The induction and the measurement of Nav1.5 current, the pharmacologic effect on Nav1.5 current, and a method for pharmacological evaluation were carried out by the same method as in Nav1.1.

human Nav1.1 = biological target: T2, human Nav1.1 (Homo sapiens, UniProt P35498); assay: Amplification of Nav1.1-derived voltage-dependent sodium current (Nav1.1 current), cell line stably expressing human Nav1.1, automated patch clamp; format: cell-based
T2 construct: host or cells: HEK293
Outline: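 Automated whole-cell voltage-clamp recordings used HEK293 cells stably expressing human Nav1.1, keeping only cells with >500 pA current, with currents evoked by ramp voltage. Compounds were applied in extracellular fluid with 1% DMSO, and amplification (%) was computed from peak current or AUC after versus before addition.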

[1] = compound 3 μmol/L, CHO-K1 stably expressing human Nav1.5
[2] = compound 3 μmol/L, HEK293 stably expressing human Nav1.1
[3] = compound 1 μmol/L, CHO-K1 stably expressing human Nav1.5
[4] = compound 1 μmol/L, HEK293 stably expressing human Nav1.1
[5] = 10 μmol/L compound, change of the area under the curve of Nav1.5 current (Test Result 1)
[6] = 10 μmol/L compound, change of the area under the curve of Nav1.1 current (Test Result 1)

T1 sequence (Q14524 1-2015 isoform Q14524-2): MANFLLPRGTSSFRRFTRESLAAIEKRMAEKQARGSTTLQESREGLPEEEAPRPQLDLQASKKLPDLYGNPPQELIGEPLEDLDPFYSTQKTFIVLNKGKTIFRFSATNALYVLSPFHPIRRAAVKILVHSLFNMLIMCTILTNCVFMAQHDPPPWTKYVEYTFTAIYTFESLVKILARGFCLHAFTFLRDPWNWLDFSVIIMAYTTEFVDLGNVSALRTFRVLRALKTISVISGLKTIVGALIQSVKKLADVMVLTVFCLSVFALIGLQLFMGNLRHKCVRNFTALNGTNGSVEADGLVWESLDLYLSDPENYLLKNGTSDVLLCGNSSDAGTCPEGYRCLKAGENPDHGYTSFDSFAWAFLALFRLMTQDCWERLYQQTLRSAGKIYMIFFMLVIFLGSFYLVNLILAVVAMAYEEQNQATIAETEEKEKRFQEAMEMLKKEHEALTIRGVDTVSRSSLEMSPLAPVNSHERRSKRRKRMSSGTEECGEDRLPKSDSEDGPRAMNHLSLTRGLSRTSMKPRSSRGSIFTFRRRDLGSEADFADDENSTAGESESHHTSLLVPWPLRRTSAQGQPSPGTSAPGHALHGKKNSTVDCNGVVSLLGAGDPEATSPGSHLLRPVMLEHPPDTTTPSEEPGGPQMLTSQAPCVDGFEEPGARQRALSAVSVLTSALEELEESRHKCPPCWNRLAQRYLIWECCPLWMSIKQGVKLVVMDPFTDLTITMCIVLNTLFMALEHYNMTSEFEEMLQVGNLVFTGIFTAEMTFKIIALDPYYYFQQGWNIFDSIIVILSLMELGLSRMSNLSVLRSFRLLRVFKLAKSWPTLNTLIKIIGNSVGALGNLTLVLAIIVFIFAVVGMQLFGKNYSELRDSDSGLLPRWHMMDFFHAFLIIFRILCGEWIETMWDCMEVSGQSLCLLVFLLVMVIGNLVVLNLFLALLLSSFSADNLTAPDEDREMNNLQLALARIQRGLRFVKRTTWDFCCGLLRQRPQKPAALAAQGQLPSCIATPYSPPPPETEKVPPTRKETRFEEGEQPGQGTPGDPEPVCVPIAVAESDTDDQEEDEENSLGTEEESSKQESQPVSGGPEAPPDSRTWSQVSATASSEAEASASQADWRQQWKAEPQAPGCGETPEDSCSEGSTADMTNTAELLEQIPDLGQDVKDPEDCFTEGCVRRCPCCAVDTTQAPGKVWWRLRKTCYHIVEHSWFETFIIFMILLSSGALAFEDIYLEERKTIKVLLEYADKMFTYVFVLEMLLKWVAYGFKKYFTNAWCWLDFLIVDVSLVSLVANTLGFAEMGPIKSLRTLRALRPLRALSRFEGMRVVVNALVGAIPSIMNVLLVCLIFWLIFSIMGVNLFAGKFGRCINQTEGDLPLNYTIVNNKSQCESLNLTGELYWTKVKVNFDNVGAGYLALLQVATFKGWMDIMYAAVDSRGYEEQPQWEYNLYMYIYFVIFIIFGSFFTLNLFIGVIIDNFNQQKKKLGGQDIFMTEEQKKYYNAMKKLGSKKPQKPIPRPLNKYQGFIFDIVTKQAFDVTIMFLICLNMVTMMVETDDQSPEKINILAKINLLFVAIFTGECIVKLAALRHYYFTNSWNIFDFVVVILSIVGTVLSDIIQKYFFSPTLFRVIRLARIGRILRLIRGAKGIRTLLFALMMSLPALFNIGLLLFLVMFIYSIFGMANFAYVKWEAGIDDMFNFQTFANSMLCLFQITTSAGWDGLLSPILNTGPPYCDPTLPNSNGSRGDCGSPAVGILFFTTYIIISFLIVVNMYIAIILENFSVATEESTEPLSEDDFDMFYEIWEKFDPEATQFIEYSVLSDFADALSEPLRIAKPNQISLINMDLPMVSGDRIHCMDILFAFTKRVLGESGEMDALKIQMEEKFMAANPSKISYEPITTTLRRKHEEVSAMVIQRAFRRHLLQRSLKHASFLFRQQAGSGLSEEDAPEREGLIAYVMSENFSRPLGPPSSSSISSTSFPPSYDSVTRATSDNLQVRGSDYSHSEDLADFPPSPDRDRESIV

Structure (SMILES)	Nav1.1 current amplification rate (%) (human Nav1.1; [4])	Nav1.1 current amplification rate (%) (human Nav1.1; [6])	Nav1.5 current amplification rate (%) (human Nav1.5; [3])	Nav1.5 current amplification rate (%) (human Nav1.5; [5])	other results
COC1CN(Cc2nc3cc(NC(=O)Cn4nc(C5=CCC(C)CC5)ccc4=O)ccc3o2)C1 (racemic) [Example 332]	–	–	–	–	Nav1.5 current amplification rate (%) (human Nav1.5; [1]): 9%; Nav1.1 current amplification rate (%) (human Nav1.1; [2]): 15%
CC1CC=C(c2ccc(=O)n(CC(=O)Nc3ccc4oc(CN5CCC5)nc4c3)n2)CC1 (racemic) [Example 333]	–	–	–	–	Nav1.5 current amplification rate (%) (human Nav1.5; [1]): 13%; Nav1.1 current amplification rate (%) (human Nav1.1; [2]): 25%
CC1CC=C(c2ccc(=O)n(CC(=O)Nc3ccn4cc(C5CC5)nc4c3)n2)CC1 (racemic) [Example 334]	–	–	–	–	Nav1.5 current amplification rate (%) (human Nav1.5; [1]): 25%; Nav1.1 current amplification rate (%) (human Nav1.1; [2]): 255%
CC1CC=C(c2ccc(=O)n(CC(=O)Nc3ccn4c(C5CC5)cnc4c3)n2)CC1 (racemic) [Example 335]	–	–	–	–	Nav1.5 current amplification rate (%) (human Nav1.5; [1]): 65%; Nav1.1 current amplification rate (%) (human Nav1.1; [2]): 187%
CC1CC=C(c2ccc(=O)n(CC(=O)Nc3ccn4cncc4c3)n2)CC1 (racemic) [Example 338]	241	–	49	–	–
CC1CC=C(c2ccc(=O)n(CC(=O)Nc3ccc4ncnn4c3)n2)CC1 (racemic) [Example 339]	127	–	15	–	–
CC1CC=C(c2ccc(=O)n(CC(=O)Nc3ccn4nncc4c3)n2)CC1 (racemic) [Example 342]	109	–	52	–	–
CC1CC=C(c2ccc(=O)n(CC(=O)Nc3ccc4cnnn4c3)n2)CC1 (racemic) [Example 345]	232	–	46	–	–
CC1CC=C(c2ccc(=O)n(CC(=O)Nc3ccc4nccn4n3)n2)CC1 (racemic) [Example 346]	96	–	27	–	–
Cc1cc(NC(=O)Cn2nc(C3=CCC(C)CC3)ccc2=O)cn2ncnc12 (racemic) [Example 349]	101	–	24	–	–
Cc1cc(NC(=O)Cn2nc(C3=CCC(C)CC3)ccc2=O)cc2ncnn12 (racemic) [Example 352]	155	–	34	–	–
CC1CC=C(c2ccc(=O)n(CC(=O)Nc3ccc4nccnc4c3)n2)CC1 (racemic) [Example 354]	123	–	27	–	–
CC1CC=C(c2ccc(=O)n(CC(=O)Nc3ccc4ncncc4c3)n2)CC1 (racemic) [Example 355]	130	–	28	–	–
CC1CC=C(c2ccc(=O)n(CC(=O)Nc3ccc4cncnc4c3)n2)CC1 (racemic) [Example 356]	378	–	34	–	–
CC1CC=C(c2ccc(=O)n(CC(=O)Nc3ccc(C#N)nc3)n2)CC1 (racemic) [Example 360]	200	–	100	–	–
Cc1nccn1-c1ccc(NC(=O)Cn2nc(C3=CCC(C)CC3)ccc2=O)cc1 (racemic) [Example 361]	101	–	112	–	–

Structure (SMILES)	Nav1.1 current amplification rate (%) (human Nav1.1; [4])	Nav1.1 current amplification rate (%) (human Nav1.1; [6])	Nav1.5 current amplification rate (%) (human Nav1.5; [3])	Nav1.5 current amplification rate (%) (human Nav1.5; [5])	other results
CC1CC=C(c2ccc(=O)n(CC(=O)Nc3ccnc(C#N)c3)n2)CC1 (racemic) [Example 362]	133	–	24	–	–
CC1CC=C(c2ccc(=O)n(CC(=O)Nc3ccnc(N4CCOCC4)c3F)n2)CC1 (racemic) [Example 383]	84	–	51	–	–
CC1CC=C(c2ccc(=O)n(CC(=O)N3CCN(c4ccccn4)CC3)n2)CC1 (racemic) [Example 394]	–	98	–	1	–
CC1CC=C(c2ccc(=O)n(CC(=O)N3CCN(c4cccnc4)CC3)n2)CC1 (racemic) [Example 395]	–	343	–	15	–
Cc1ccc(N2CCN(C(=O)Cn3nc(C4=CCC(C)CC4)ccc3=O)CC2)cn1 (racemic) [Example 396]	–	136	–	8	–
O=C(Cn1nc(C2=CCC3(CC2)CC3(F)F)ccc1=O)N1CCc2c(N3CCOCC3)cccc21 (racemic) [Example 478]	–	–	–	–	Nav1.5 current amplification rate (%) (human Nav1.5; [1]): 23%; Nav1.1 current amplification rate (%) (human Nav1.1; [2]): 345%
CC1CCN(c2ccc(=O)n(CC(=O)Nc3ccc4ocnc4c3)n2)CC1 [Example 50, N-(1,3-benzooxazol-5-yl)-2-[3-(4-methylpiperidin-1-yl)-6-oxopyridazin-1(6H)-yl]acetamide]	–	–	–	–	activation at 10 µM (human Nav1.5; 10 μmol/L compound, change of the area under the curve of Nav1.5 current (Test Result 1), read-out: Nav1.5 current amplification rate (%)): 4%; activation at 10 µM (human Nav1.1; 10 μmol/L compound, change of the area under the curve of Nav1.1 current (Test Result 1), read-out: Nav1.1 current amplification rate (%)): 155%
CC1CCN(c2ccc(=O)n(CC(=O)Nc3ccc(C#N)nc3)n2)CC1 [Example 51]	–	196	–	31	–
CC1CCN(c2ccc(=O)n(CC(=O)Nc3ccnc(C(F)(F)F)c3)n2)CC1 [Example 52]	–	248	–	19	–
CC1CCN(c2ccc(=O)n(CC(=O)Nc3ccnc(C#N)c3)n2)CC1 [Example 53]	–	161	–	11	–
CC1CCN(c2ccc(=O)n(CC(=O)Nc3cccc(C#N)c3)n2)CC1 [Example 55]	–	111	–	27	–
CC1CCN(c2ccc(=O)n(CC(=O)Nc3ccc(C(F)(F)F)nc3)n2)CC1 [Example 59]	–	180	–	56	–
CC1CCN(c2ccc(=O)n(CC(=O)Nc3cncc(C#N)c3)n2)CC1 [Example 60]	–	57	–	21	–
CC1CCN(c2ccc(=O)n(CC(=O)Nc3cncc(C(F)(F)F)c3)n2)CC1 [Example 61]	–	77	–	8	–
CC1CCN(c2ccc(=O)n(CC(=O)Nc3cncc(Cl)c3)n2)CC1 [Example 63]	–	49	–	3	–
CC1CCN(c2ccc(=O)n(CC(=O)Nc3ccnc(N4CCOCC4)c3)n2)CC1 [Example 66]	–	49	–	31	–

Now from value to compound, other results behind:

Nav1.1 current amplification rate (%) (human Nav1.1; [4])	Nav1.1 current amplification rate (%) (human Nav1.1; [6])	Structure (SMILES)	Nav1.5 current amplification rate (%) (human Nav1.5; [3])	Nav1.5 current amplification rate (%) (human Nav1.5; [5])	other results
–	273	CC1CC=C(c2ccc(=O)n(CC(=O)N3CC=C(c4cncc(F)c4)CC3)n2)CC1 (racemic) [Example 397]	–	49	–
–	175	CC1CC=C(c2ccc(=O)n(CC(=O)N3CC=C(c4cncnc4)CC3)n2)CC1 (racemic) [Example 398]	–	29	–
–	102	COc1cnc(C2=CCN(C(=O)Cn3nc(C4=CCC(C)CC4)ccc3=O)CC2)cn1 (racemic) [Example 399]	–	11	–
–	238	COc1ncc(C2=CCN(C(=O)Cn3nc(C4=CCC(C)CC4)ccc3=O)CC2)cn1 (racemic) [Example 400]	–	24	–
–	286	CC1CC=C(c2ccc(=O)n(CC(=O)N3CCN(c4cncc(C(F)(F)F)c4)CC3)n2)CC1 (racemic) [Example 401]	–	5	–
–	487	COc1cc(C2=CCC(C)CC2)nn(CC(=O)N2CCc3c(N4CCOCC4)cccc32)c1=O (racemic) [Example 473]	–	128	–
–	235	COc1cc(C2=CCC(C(F)(F)F)CC2)nn(CC(=O)N2CCc3c(N4CCOCC4)cccc32)c1=O (racemic) [Example 474]	–	26	–
–	343	COc1cc(=O)n(CC(=O)N2CCc3c(N4CCOCC4)cccc32)nc1C1=CCC(C(F)(F)F)CC1 (racemic) [Example 476]	–	13	–
–	219	COc1cc(C2=CCC(C(F)(F)F)CC2)nn(CC(=O)N2CCN(c3cncc(F)c3)CC2)c1=O (racemic) [Example 482]	–	8	–
–	148	COc1cc(=O)n(CC(=O)N2CCN(c3cncc(F)c3)CC2)nc1C1=CCC(C(F)(F)F)CC1 (racemic) [Example 486]	–	8	–
–	190	O=C(Cn1nc(C2=CCC(C(F)(F)F)CC2)ccc1=O)N1CCN(c2cncc(F)c2)CC1 (racemic) [Example 487]	–	109	–
–	376	COc1cc(C2=CCC(C)CC2)nn(CC(=O)N2CCN(c3cncc(F)c3)CC2)c1=O (racemic) [Example 488]	–	174	–
–	277	CC1CCC(c2ccc(=O)n(CC(=O)N3CCc4c(N5CCOCC5)cccc43)n2)CC1 (single isomer, unassigned) [Example 535]	–	10	–

From patent US20220347175A1, “PYRIDAZINONE DERIVATIVE” (Sumitomo Dainippon Pharma Co., Ltd., priority 2018, published 2022)
